Reference: ChEMBL document CHEMBL4765464, “Discovery of BMS-986144, a Third-Generation, Pan-Genotype NS3/4A Protease Inhibitor for the Treatment of Hepatitis C Virus Infection” (J Med Chem, 2020)

How the values were obtained:
[1] = Inhibition of recombinant full length NS3/4A protease in Hepatitis C virus subtype 3a infected in human HuH7 cells using Ac-Asp-Glu-Asp (EDANS)-Glu-Glu-Abu-(COO) Ala-Ser-Lys (DABCYL)-NH2 as substrate by FRET assay; conditions: Huh-7
[2] = Inhibition of recombinant full length NS3/4A protease in Hepatitis C virus subtype 1a replicon infected in human HuH7 cells preincubated for 3 days followed by substrate addition and measured after 2 hrs by renilla luciferase reporter gene assay; assay type: cell-based; conditions: Huh-7
[3] = Inhibition of recombinant full length NS3/4A protease in Hepatitis C virus subtype 1b replicon infected in human HuH7 cells preincubated for 3 days followed by substrate addition and measured after 2 hrs by renilla luciferase reporter gene assay; assay type: cell-based; conditions: Huh-7
[4] = Inhibition of recombinant full length NS3/4A protease in Hepatitis C virus subtype 2a replicon infected in human HuH7 cells preincubated for 3 days followed by substrate addition and measured after 2 hrs by renilla luciferase reporter gene assay; assay type: cell-based; conditions: Huh-7
[5] = Inhibition of recombinant full length NS3/4A protease in Hepatitis C virus subtype 3a replicon infected in human HuH7 cells preincubated for 3 days followed by substrate addition and measured after 2 hrs by renilla luciferase reporter gene assay; assay type: cell-based; conditions: Huh-7
[6] = Inhibition of recombinant full length NS3/4A R155K mutant protease in Hepatitis C virus subtype 1a replicon infected in human HuH7 cells preincubated for 3 days followed by substrate addition and measured after 2 hrs by renilla luciferase reporter gene assay; assay type: cell-based; conditions: Huh-7
[7] = Inhibition of recombinant full length NS3/4A D168V mutant protease in Hepatitis C virus subtype 1b replicon infected in human HuH7 cells preincubated for 3 days followed by substrate addition and measured after 2 hrs by renilla luciferase reporter gene assay; assay type: cell-based; conditions: Huh-7
[8] = Metabolic stability in human liver microsomes assessed as half-life incubated for 5 to 45 mins in presence of NADPH by LC-MS analysis; assay type: ADME, Microsome; conditions: time 5-45 min
[9] = Clearance in rat at 1 mg/kg, iv; assay type: ADME, organism-based; conditions: in vivo
[10] = Half life in rat at 1 mg/kg, iv; assay type: ADME, organism-based; conditions: in vivo
[11] = AUC (0 to 24 hrs) in rat at 5 mg/kg, po; assay type: ADME, organism-based; design: time < 24 hr, route oral, dose 5 mg/kg; conditions: in vivo
[12] = Cmax in rat at 5 mg/kg, po; assay type: ADME, organism-based; design: route oral, dose 5 mg/kg; conditions: in vivo
[13] = Drug concentration in rat plasma at 5 mg/kg, po measured upto 24 hrs; assay type: ADME, organism-based; conditions: read-out: Ct
[14] = Drug concentration in rat liver at 5 mg/kg, po measured upto 24 hrs; assay type: ADME, organism-based; conditions: read-out: Ct
[15] = Ratio of drug concentration in liver to plasma in rat at 5 mg/kg, po measured upto 24 hrs; assay type: ADME, organism-based; conditions: liver and plasma
[16] = Oral bioavailability in rat at 5 mg/kg; assay type: ADME, organism-based; conditions: in vivo
[17] = Half-life in dog at 3 mg/kg, po or 1 mg/kg, iv; assay type: ADME, organism-based, Canis lupus familiaris; conditions: in vivo
[18] = Half-life in rat at 5 mg/kg, po or 1 mg/kg, iv; assay type: ADME, organism-based; conditions: in vivo
[19] = Clearance in rat at 5 mg/kg, po or 1 mg/kg, iv; assay type: ADME, organism-based; conditions: in vivo
[20] = AUC in rat at 5 mg/kg, po or 1 mg/kg, iv; assay type: ADME, organism-based; design: dose 5 mg/kg; conditions: in vivo
[21] = Clearance in dog at 3 mg/kg, po or 1 mg/kg, iv; assay type: ADME, organism-based, Canis lupus familiaris; conditions: in vivo
[22] = Oral bioavailability in dog at 3 mg/kg; assay type: ADME, organism-based, Canis lupus familiaris; conditions: in vivo
[23] = AUC in dog at 3 mg/kg, po or 1 mg/kg, iv; assay type: ADME, organism-based, Canis lupus familiaris; design: dose 3 mg/kg; conditions: in vivo
[24] = Drug concentration in dog plasma at 3 mg/kg, po measured upto 24 hrs; assay type: ADME, organism-based, Canis lupus familiaris; conditions: read-out: Ct
[25] = Half-life in cynomolgus monkey at 3 mg/kg, po or 1 mg/kg, iv; assay type: ADME, organism-based, Macaca fascicularis; conditions: in vivo
[26] = Clearance in cynomolgus monkey at 3 mg/kg, po or 1 mg/kg, iv; assay type: ADME, organism-based, Macaca fascicularis; conditions: in vivo
[27] = Oral bioavailability in cynomolgus monkey at 3 mg/kg; assay type: ADME, organism-based, Macaca fascicularis; conditions: in vivo
[28] = AUC in cynomolgus monkey at 3 mg/kg, po or 1 mg/kg, iv; assay type: ADME, organism-based, Macaca fascicularis; design: dose 3 mg/kg; conditions: in vivo
[29] = Drug concentration in cynomolgus monkey plasma at 3 mg/kg, po measured upto 24 hrs; assay type: ADME, organism-based, Macaca fascicularis; conditions: read-out: Ct
[30] = Toxicity in rat assessed as histopathological changes in liver at 100 mg/kg; assay type: organism-based; conditions: in vivo
[31] = Toxicity in rat assessed as increase in heart rate at 30 to 100 mg/kg; assay type: organism-based; conditions: in vivo, dose 30-100 mg/kg
[32] = Toxicity in rat assessed as reduction in blood pressure at 30 to 100 mg/kg; assay type: organism-based; conditions: in vivo, dose 30-100 mg/kg
[33] = Clearance in rat at 5 mg/kg, iv; assay type: ADME, organism-based; conditions: in vivo
[34] = AUC (0 to 24 hrs) in rat at 15 mg/kg, po; assay type: ADME, organism-based; design: time < 24 hr, route oral, dose 15 mg/kg; conditions: in vivo
[35] = Ratio of drug concentration in liver to plasma in rat at 15 mg/kg, po measured upto 24 hrs; assay type: ADME, organism-based; conditions: liver and plasma
[36] = Half life in rat at 5 mg/kg, iv; assay type: ADME, organism-based; conditions: in vivo
[37] = Cmax in rat at 15 mg/kg, po; assay type: ADME, organism-based; design: route oral, dose 15 mg/kg; conditions: in vivo
[38] = Drug concentration in rat plasma at 15 mg/kg, po measured upto 24 hrs; assay type: ADME, organism-based; conditions: read-out: Ct
[39] = Drug concentration in rat liver at 15 mg/kg, po measured upto 24 hrs; assay type: ADME, organism-based; conditions: read-out: Ct
[40] = Oral bioavailability in rat at 15 mg/kg; assay type: ADME, organism-based; conditions: in vivo
[41] = Metabolic stability in rat liver microsomes assessed as parent compound remaining after 10 mins in presence of NADPH by LC-MS analysis; assay type: ADME, Microsome; conditions: read-out: Stabilty
[42] = Volume of distribution in rat at 15 mg/kg, po or 5 mg/kg, iv; assay type: ADME, organism-based; conditions: in vivo

Q: What does the source list for `CC[C@@H]1C[C@H](C)CC/C=C\[C@@H]2C[C@@]2(C(=O)NS(=O)(=O)C2(C)CC2)NC(=O)[C@@H]2C[C@@H](Oc3ncc(OC)c4ccc(F)cc34)CN2C(=O)[C@H]1NC(=O)OC(C)(C)C(F)(F)F`?
A: IC50 [1]: 8.4 nM; EC50 [2]: 2.3 nM; EC50 [3]: 0.6 nM; EC50 [4]: 2 nM; EC50 [5]: 15 nM; EC50 [6]: 7.6 nM; EC50 [7]: 9 nM; half-life [8]: 0.717 h; clearance [9]: 1.2 mL/min/kg; half-life [10]: 7.9 h; AUC(0-t) at 24 h [11]: 32.5 µM·h; Cmax [12]: 3610 nM; concentration at 24 h [13]: 422 nM; concentration at 24 h [14]: 2070 nM; Kp at 24 h [15]: 5; bioavailability [16]: 47%; half-life [17]: 11.3 h; half-life [18]: 7.9 h; clearance [19]: 1.2 mL/min/kg; AUC [20]: 37 µM·h; clearance [21]: 0.6 mL/min/kg; bioavailability [22]: 67%; AUC [23]: 71 µM·h; concentration at 24 h [24]: 709 nM; half-life [25]: 2.8 h; clearance [26]: 5.5 mL/min/kg; bioavailability [27]: 28%; AUC [28]: 2.9 µM·h; concentration at 24 h [29]: 13 nM; Activity [30]: Non-Toxic; Activity [31]: Toxic; Activity [32]: Toxic

Q: Which IC50 [1] does the source give for `COc1cnc(O[C@@H]2C[C@H]3C(=O)N[C@]4(C(=O)NS(=O)(=O)C5CC5)C[C@H]4/C=C\CC[C@@H](C)C[C@@H](C)[C@H](NC(=O)OC(C)(C)C(F)(F)F)C(=O)N3C2)c2ccccc12` here?
A: 0.9 nM

Q: And the EC50 [2]?
A: 0.5 nM

Q: What about the EC50 [3] of the same compound?
A: 0.5 nM

Q: What about the EC50 [4] of the same compound?
A: 0.8 nM

Q: And the EC50 [5]?
A: 2 nM

Q: And the EC50 [6]?
A: 2.2 nM

Q: And the EC50 [7]?
A: 5.5 nM

Q: What about the half-life [8] of the same compound?
A: 0.198 h

Q: And the clearance [33]?
A: 4.2 mL/min/kg

Q: And the AUC(0-t) at 24 h [34]?
A: 11.7 µM·h

Q: And the Kp at 24 h [35]?
A: 34

Q: And the half-life [36]?
A: 2.7 h

Q: And the Cmax [37]?
A: 1780 nM

Q: What about the concentration at 24 h [38] of the same compound?
A: 14 nM

Q: And the concentration at 24 h [39]?
A: 480 nM

Q: And the bioavailability [40]?
A: 15%

Q: What about the remaining at 10 min [41] of the same compound?
A: 95%

Q: And the Vd [42]?
A: 0.58 L/kg
